The values below come from ChEMBL document CHEMBL1149359, “Total synthesis and biological evaluation of ustiloxin natural products and two analogs” (Bioorg Med Chem Lett, 2006).

One assay addresses Tubulin. In words: Inhibition of tubulin polymerization. The class given is protein-complex assay, Homo sapiens.
In a further assay the test system is CA46. As to the kind of experiment: Cytotoxicity against human CA46 cell line. Type of assay: functional, cell-based.

In general, IC50 refers to the concentration at which inhibition is half-maximal. A lower IC50 goes with greater potency in that assay. On to `CC[C@@H](C)[C@@H]1NC(=O)[C@@H](NC)[C@H](O)c2ccc(O)c(c2)O[C@](C)(CC)[C@@H](C(=O)NCC(=O)O)NC1=O`, for which, on Tubulin, inhibition was half-maximal at 4.8 µM (IC50).
As to `CC[C@@]1(C)Oc2cc(ccc2OC)[C@@H](O)[C@H](NC)C(=O)N[C@@H](C(C)C)C(=O)N[C@@H]1C(=O)NCC(=O)O`, the IC50 on Tubulin is over 40 µM.
`CC[C@H](C)[C@@H]([C@@H](CC(=O)N1CCC[C@H]1[C@H](OC)[C@@H](C)C(=O)N[C@@H](Cc1ccccc1)c1nccs1)OC)N(C)C(=O)[C@@H](NC(=O)[C@H](C(C)C)N(C)C)C(C)C` [DOLASTATIN-10] came in with an IC50 in the assay with CA46 of 0.03 µM.
For `CC[C@@]1(C)Oc2cc(c([S+]([O-])C[C@@H](O)C[C@H](N)C(=O)O)cc2O)[C@@H](O)[C@H](NC)C(=O)N[C@@H](C(C)C)C(=O)N[C@@H]1C(=O)NCC(=O)O` (some centres not stated) [USTILOXIN A], the IC50 was 2.5 µM in the assay with CA46 and 1.1 µM on Tubulin.
Take `CC[C@@]1(C)Oc2cc(ccc2O)[C@@H](O)[C@H](NC)C(=O)N[C@@H](C(C)C)C(=O)N[C@@H]1C(=O)NCC(=O)O` [USTILOXIN D]: half-maximal inhibition against Tubulin (IC50) required 1.5 µM.
Turning to `CC[C@@]1(C)Oc2cc(ccc2O)[C@@H](O)[C@H](NC)C(=O)N[C@@H](C)C(=O)N[C@@H]1C(=O)NCC(=O)O` [USTILOXIN F], 8.2 µM corresponded to half-maximal inhibition against Tubulin (IC50).
